Values after ≈ are worked out from the molar mass of the structure shown. Where two headings read alike, the source gives them in different places.
Experiments:
[1] = system: S. aureus ATCC 13709; experiment: Minimum inhibitory concentration (MIC), S. aureus; assay type: cell-based, Staphylococcus aureus; conditions: Staphylococcus aureus
Method: (§1) Bacterial Strains. The Streptococcus pyogenes strains, Klebsiella pneumoniae, Escherichia coli, Staphylococcus aureus, Enterococcus faecalis used in the antibacterial activity studies ATCC 14289, 49399, 13883, 25922, 13709, 29212, respectively, are obtained from the American Type Culture Collection, Rockville, Md. The strain E. coli imp— is a mutant strain of wild type E. coli with increased outer membrane permeability and was grown in LB broth at 37 °C. S. pyogenes strain is grown in Todd-Hewitt broth. S. aureus is grown in trypticase soy broth, E. faecalis in Todd-Hewitt broth, wild type E. coli and K. pneumoniae, in nutrient broth.
(§2) Determination of Minimum Inhibitory Concentrations (MICs). The assays were carried out in […] volume in duplicate in 96-well clear flat-bottom plates. The bacterial suspension from an overnight culture growth in appropriate medium was added to a solution of test compound in 4% DMSO in water. Final bacterial inoculum was approximately 10^5-10^6 CFU/well. The percent growth of the bacteria in test wells relative to that observed for a well containing no compound was determined by measuring absorbance at 595 nm (A595) after 24 h. […] Both ampicillin and tetracycline is used as antibiotic-positive controls in each screening assay for S. pyogenes, E. coli imp-, E. coli, S. aureus, E. faecalis, K pneumoniae and P. vulgaris. Ciprofloxacin is used as an antibiotic positive control in each screening assay for P. aeruginosa.

[2] = system: E. coli ATCC 25922; experiment: Minimum inhibitory concentration (MIC), E. coli; assay type: cell-based, Escherichia coli; conditions: Escherichia coli
Method: as §1, §2

[3] = system: E. coli S30 bacterial extract (protein synthesis); assay type: biochemical
Method: Coupled Bacterial Transcription/Translation Assay. The DNA template, pBestLuc™ (Promega), is a plasmid containing a reporter gene for firefly luciferase fused to a strong tac promoter and ribosome binding site. Messenger RNA from 1 μg pBestLuc was transcribed and translated in E. coli S30 bacterial extract in the presence or absence of test compound. Compounds were tested in a black 96 well microtiter plate with an assay volume of 35 μL. Each test well contained: 5 μL test compound, 13 μL S30 premix (Promega), 4 μL 10× complete amino acid mix (1 mM each), 5 μL E. coli S30 extract and 8 μL of […] pBestLuc™. The transcription/translation reaction was incubated for 35 minutes at 37° C. followed by detection of functional luciferase with the addition of 30 μL LucLite™ (Packard). Light output was quantitated on a Packard TopCount.

[4] = ATCC13709, 24 h, read-out: MIC (S. aureus)
[5] = ATCC25922, 24 h, read-out: MIC (E. coli)

SMILES: CN(C)CCCOc1ccc(C(NC(=O)c2ccc(-c3cccc(NC(=O)c4ccc(-c5ccccc5)cc4Cl)c3)o2)C(=O)N2CCNCC2)cc1 (stereo not shown) [Compound 60]
- MIC [1, 4]: 25 to 50 mM (≈ 18000 to 36000 µg/mL)
- MIC [2, 5]: 6 to 13 mM (≈ 4320 to 9360 µg/mL)

SMILES: CN(C)CCCOc1ccc(C(NC(=O)c2ccc(-c3cccc(N(C)Cc4ccc(-c5ccccc5)cc4)c3)o2)C(=O)N2CCNCC2)cc1 (stereo not shown) [Compound 66]
- MIC [1, 4]: 3 to 6 mM (≈ 2060 to 4120 µg/mL)
- MIC [2, 5]: 13 to 25 mM (≈ 8920 to 17100 µg/mL)

SMILES: CN(C)CCCOc1ccc(C(NC(=O)c2ccc(-c3cccc(NC(=O)c4ccc(-c5ccc(F)cc5F)cc4)c3)o2)C(=O)N2CCNCC2)cc1 (stereo not shown) [Compound 55]
- MIC [1, 4]: 6 to 13 mM (≈ 4330 to 9380 µg/mL)
- MIC [2, 5]: 25 to 50 mM (≈ 18000 to 36100 µg/mL)

SMILES: CN(C)CCCOc1ccc(C(NC(=O)c2ccc(-c3cccc(NC(=O)c4ccc(-c5ccccc5)cc4)c3)o2)C(=O)N2CCN(S(C)(=O)=O)CC2)cc1 (stereo not shown) [Compound 71]
- MIC [1, 4]: > 100 mM
- MIC [2, 5]: > 100 mM

SMILES: CN(C)CCCOc1ccc(C(NC(=O)c2ccc(-c3cccc(NC(=O)c4ccc(-c5ccccc5)cc4F)c3)o2)C(=O)N2CCNCC2)cc1 (stereo not shown) [Compound 59]
- MIC [1, 4]: 6 to 13 mM (≈ 4220 to 9150 µg/mL)
- MIC [2, 5]: 3 to 6 mM (≈ 2110 to 4220 µg/mL)

SMILES: CCCc1ccc(-c2ccc(C(=O)Nc3cccc(-c4ccc(C(=O)NC(C(=O)N5CCNCC5)c5ccc(OCCCN(C)C)cc5)o4)c3)cc2)cc1 (stereo not shown) [Compound 36]
- MIC [1, 4]: 13 to 25 mM (≈ 9460 to 18200 µg/mL)
- MIC [2, 5]: > 100 mM

SMILES: Cc1ccc(C)c(-c2ccc(C(=O)Nc3cccc(-c4ccc(C(=O)NC(C(=O)N5CCNCC5)c5ccc(OCCCN(C)C)cc5)o4)c3)cc2)c1 (stereo not shown) [Compound 43]
- MIC [1, 4]: 13 to 25 mM (≈ 9280 to 17800 µg/mL)
- MIC [2, 5]: 25 to 50 mM (≈ 17800 to 35700 µg/mL)

SMILES: CN(C)CCCOc1ccc(C(NC(=O)c2ccc(-c3cccc(NCc4ccc(-c5ccccc5)cc4)c3)o2)C(=O)N2CCNCC2)cc1 (stereo not shown) [Compound 65]
- MIC [1, 4]: 3 to 6 mM (≈ 2020 to 4030 µg/mL)
- MIC [2, 5]: 13 to 25 mM (≈ 8730 to 16800 µg/mL)

SMILES: Cc1cccc(-c2ccc(C(=O)Nc3cccc(-c4ccc(C(=O)NC(C(=O)N5CCNCC5)c5ccc(OCCCN(C)C)cc5)o4)c3)cc2)c1 (stereo not shown) [Compound 39]
- MIC [1, 4]: 13 to 25 mM (≈ 9100 to 17500 µg/mL)
- MIC [2, 5]: 13 to 25 mM (≈ 9100 to 17500 µg/mL)

SMILES: CN(C)CCCOc1ccc(C(NC(=O)c2ccc3[nH]c(=O)c(=O)[nH]c3c2)C(=O)N2CCNCC2)cc1 (stereo not shown) [Compound 22]
- activity in bacterial protein synthesis assay at 200:M ([3]; at 200:M): inactive

SMILES: CN(C)CCCOc1ccc(C(NC(=O)c2ccc(-c3cccc(NC(=O)c4ccc5[nH]c(=O)c(=O)[nH]c5c4)c3)o2)C(N)=O)cc1 (stereo not shown) [Compound 21]
- fold less potent than 12 ([3]; versus 12): ~3 fold

SMILES: CC(=O)NCC1CN(c2ccc(N3CCOCC3)c(F)c2)C(=O)O1 (stereo not shown)
- MIC ([1]; ATCC13709, alone (no serum), read-out: MIC (S. aureus) alone): 2 mM (≈ 675 µg/mL)
- MIC ([1]; ATCC13709, with serum, read-out: MIC (S. aureus) +serum): 2 to 3 mM (≈ 675 to 1010 µg/mL)
- MIC ([2]; ATCC25922, alone (no serum), read-out: MIC (E. coli) alone): 2 to 3 mM (≈ 675 to 1010 µg/mL)
- MIC ([2]; ATCC25922, with serum, read-out: MIC (E. coli) +serum): 3 to 6 mM (≈ 1010 to 2020 µg/mL)

SMILES: CCc1ccc(-c2ccc(C(=O)Nc3cccc(-c4ccc(C(=O)NC(C(=O)N5CCNCC5)c5ccc(OCCCN(C)C)cc5)o4)c3)cc2)cc1 (stereo not shown) [Compound 35]
- MIC [1, 4]: 6 to 13 mM (≈ 4280 to 9280 µg/mL)
- MIC [2, 5]: 50 to 100 mM (≈ 35700 to 71400 µg/mL)

SMILES: COC(=O)N1CCN(C(=O)C(NC(=O)c2ccc(-c3cccc(NC(=O)c4ccc(-c5ccccc5)cc4)c3)o2)c2ccc(OCCCN(C)C)cc2)CC1 (stereo not shown) [Compound 72]
- MIC [1, 4]: > 100 mM
- MIC [2, 5]: > 100 mM

SMILES: CN(C)CCCCC(NC(=O)c1ccc(-c2cccc(NC(=O)c3ccc(-c4ccccc4)cc3)c2)o1)C(=O)N1CCNCC1 (stereo not shown) [Compound 68]
- MIC [1, 4]: 25 to 50 mM (≈ 15200 to 30400 µg/mL)
- MIC [2, 5]: 50 to 100 mM (≈ 30400 to 60800 µg/mL)

SMILES: Cc1ccc(F)cc1-c1ccc(C(=O)Nc2cccc(-c3ccc(C(=O)NC(C(=O)N4CCNCC4)c4ccc(OCCCN(C)C)cc4)o3)c2)cc1 (stereo not shown) [Compound 52]
- MIC [1, 4]: 6 to 13 mM (≈ 4310 to 9330 µg/mL)
- MIC [2, 5]: 13 to 25 mM (≈ 9330 to 17900 µg/mL)

SMILES: CN(C)CCCOc1ccc(C(NC(=O)c2ccc(-c3cccc(NC(=O)c4ccc(-c5cccc(F)c5)cc4)c3)o2)C(=O)N2CCNCC2)cc1 (stereo not shown)
- MIC [1, 4]: 3 to 6 mM (≈ 2110 to 4220 µg/mL)
- MIC [2, 5]: 6 to 13 mM (≈ 4220 to 9150 µg/mL)

From patent US7432264B2, “Antimicrobial biaryl compounds” (Isis Pharmaceuticals, Inc., priority 2000, dated 2008)
